{"source": "paper PMC7229206", "about": "“Split Intein-Mediated Protein Ligation for detecting protein-protein interactions and their inhibition” (Nature Communications, 2020)", "target": "T1, EGFR (Homo sapiens, UniProt P00533)", "T1 construct": "EGFR-IN; with SHC1", "T1 sequence (P00533 25-1210)": "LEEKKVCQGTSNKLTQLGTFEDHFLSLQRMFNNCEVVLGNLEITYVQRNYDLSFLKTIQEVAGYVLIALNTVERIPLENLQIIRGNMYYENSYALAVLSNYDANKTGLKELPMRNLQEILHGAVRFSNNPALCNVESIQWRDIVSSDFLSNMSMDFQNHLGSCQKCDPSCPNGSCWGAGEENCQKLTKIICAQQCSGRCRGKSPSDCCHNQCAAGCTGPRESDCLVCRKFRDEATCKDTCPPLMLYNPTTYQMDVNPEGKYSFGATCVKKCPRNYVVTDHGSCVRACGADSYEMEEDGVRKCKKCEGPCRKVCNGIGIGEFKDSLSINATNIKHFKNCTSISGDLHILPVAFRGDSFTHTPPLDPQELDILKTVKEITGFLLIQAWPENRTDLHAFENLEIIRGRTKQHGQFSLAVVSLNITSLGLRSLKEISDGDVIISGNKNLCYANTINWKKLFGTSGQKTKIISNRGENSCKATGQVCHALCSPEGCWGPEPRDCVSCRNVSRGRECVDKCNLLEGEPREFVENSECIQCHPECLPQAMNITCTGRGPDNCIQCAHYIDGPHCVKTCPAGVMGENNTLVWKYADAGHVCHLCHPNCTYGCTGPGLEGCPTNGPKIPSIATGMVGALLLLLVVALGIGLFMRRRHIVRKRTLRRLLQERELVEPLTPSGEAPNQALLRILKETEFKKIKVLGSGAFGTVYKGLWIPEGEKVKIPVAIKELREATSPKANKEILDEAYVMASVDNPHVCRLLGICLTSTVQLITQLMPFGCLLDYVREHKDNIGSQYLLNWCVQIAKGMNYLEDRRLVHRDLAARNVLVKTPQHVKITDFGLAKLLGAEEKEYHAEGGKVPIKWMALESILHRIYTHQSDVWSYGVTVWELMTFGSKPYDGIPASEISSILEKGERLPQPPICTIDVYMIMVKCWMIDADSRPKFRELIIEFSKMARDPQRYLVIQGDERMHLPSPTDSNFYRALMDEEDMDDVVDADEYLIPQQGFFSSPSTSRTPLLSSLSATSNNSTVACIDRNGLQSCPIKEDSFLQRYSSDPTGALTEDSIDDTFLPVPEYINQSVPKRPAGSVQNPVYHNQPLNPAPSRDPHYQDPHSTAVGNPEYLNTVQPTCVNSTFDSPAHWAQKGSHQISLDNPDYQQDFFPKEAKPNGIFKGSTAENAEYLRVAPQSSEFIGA", "T1 sequence (P29353 whole entry, further chain, canonical isoform)": "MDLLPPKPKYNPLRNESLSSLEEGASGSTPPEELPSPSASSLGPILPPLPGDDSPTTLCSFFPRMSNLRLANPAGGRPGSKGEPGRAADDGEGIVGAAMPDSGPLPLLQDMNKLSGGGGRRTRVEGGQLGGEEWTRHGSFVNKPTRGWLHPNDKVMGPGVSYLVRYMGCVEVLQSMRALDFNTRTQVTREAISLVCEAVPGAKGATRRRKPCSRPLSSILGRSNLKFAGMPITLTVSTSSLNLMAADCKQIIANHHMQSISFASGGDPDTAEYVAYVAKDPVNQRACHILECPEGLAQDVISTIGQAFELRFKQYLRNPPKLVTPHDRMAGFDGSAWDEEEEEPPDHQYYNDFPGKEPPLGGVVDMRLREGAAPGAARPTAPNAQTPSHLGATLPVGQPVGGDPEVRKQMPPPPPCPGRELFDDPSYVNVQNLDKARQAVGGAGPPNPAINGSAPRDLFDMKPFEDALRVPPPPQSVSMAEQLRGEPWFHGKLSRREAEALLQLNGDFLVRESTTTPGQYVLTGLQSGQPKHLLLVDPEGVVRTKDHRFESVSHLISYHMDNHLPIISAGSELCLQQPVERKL", "assay": "SIMPL western blot of EGFR/SHC1 interaction in cells (indirect readout of EGFR kinase activity)", "assay_type": "cell-based", "data": [{"smiles": "COc1cc2ncnc(Nc3cccc(Cl)c3)c2cc1OC", "note": "[AG1478]", "values": [{"measurement": "SIMPL western blot of EGFR/SHC1 interaction in cells (indirect readout of EGFR k)", "value": "The spliced EGFR-SHC1 band observed by western blot diminished with increasing AG1478 concentration."}]}]}
